Here are results for 28 compounds from patent publication US20230159469A1, “NOVEL PHTHALAZINE DERIVATIVE HAVING ECTONUCLOEOTIDE PYROPHOSPHATASE/PHOSPHODIESTE RASE INHIBITORY ACTIVITY, AND USE THEREOF” (TXINNO BIOSCIENCE INC., priority 2020, published 2023).

The target in this assay is T1, human recombinant ENPP1 (Homo sapiens, UniProt P22413).
T1 construct: purchased R & D systems
T1 sequence (P22413 1-925): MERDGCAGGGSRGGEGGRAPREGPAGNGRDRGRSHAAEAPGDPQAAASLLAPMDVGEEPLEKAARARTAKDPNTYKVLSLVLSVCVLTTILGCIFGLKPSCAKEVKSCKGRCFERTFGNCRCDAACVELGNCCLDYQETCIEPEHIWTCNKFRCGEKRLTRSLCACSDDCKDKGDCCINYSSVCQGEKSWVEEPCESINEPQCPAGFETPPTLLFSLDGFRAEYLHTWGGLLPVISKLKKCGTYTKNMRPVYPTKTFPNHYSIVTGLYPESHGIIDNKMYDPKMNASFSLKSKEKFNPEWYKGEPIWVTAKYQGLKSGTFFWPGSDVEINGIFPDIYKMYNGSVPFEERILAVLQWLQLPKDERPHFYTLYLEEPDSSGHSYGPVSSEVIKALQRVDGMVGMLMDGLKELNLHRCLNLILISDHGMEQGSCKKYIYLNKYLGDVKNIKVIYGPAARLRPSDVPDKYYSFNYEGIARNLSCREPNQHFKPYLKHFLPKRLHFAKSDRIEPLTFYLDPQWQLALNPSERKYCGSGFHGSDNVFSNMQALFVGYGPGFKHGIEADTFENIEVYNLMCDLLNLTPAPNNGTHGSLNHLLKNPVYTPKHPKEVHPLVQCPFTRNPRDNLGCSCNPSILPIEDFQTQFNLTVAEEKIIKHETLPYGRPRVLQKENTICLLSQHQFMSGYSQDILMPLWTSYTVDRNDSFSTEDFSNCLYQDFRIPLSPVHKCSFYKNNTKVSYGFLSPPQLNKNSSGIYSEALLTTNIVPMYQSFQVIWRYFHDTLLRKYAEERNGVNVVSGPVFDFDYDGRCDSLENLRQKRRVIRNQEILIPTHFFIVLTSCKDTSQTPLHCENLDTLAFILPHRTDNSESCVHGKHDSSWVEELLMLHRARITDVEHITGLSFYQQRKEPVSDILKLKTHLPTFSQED
Briefly: ENPP1 enzyme assay with cGAMP substrate (AMP-Glo luminescence). The class given is biochemical. Conditions: human recombinant ENPP1 3 ng/reaction, cGAMP 5 μM, 37° C. 90 minutes, read-out: Enzymatic activity (ENPP1 IC50). Here is the method: ENPP1 hydrolyzes nucleotides or nucleotide derivatives to produce nucleoside -5′-monophosphate and pyrophosphate. in addition, ENPP1 hydrolyzes 2′,3′-cGAMP to produce 5′-adenosine monophosphate (AMP) and 5′-guanosine monophosphate (GMP). AMP produced from the reaction is measured using the AMP-Glo® kit (Promega). The AMP-Glo® kit contains two reagents. The first reagent terminates the AMP-producing enzymatic reaction, removes ATP and converts the produced AMP into ADP. The second reagent converts ADP to ATP which is used to generate luminescence in the luciferase reaction. The amount of luminescence measured is proportional to the amount of AMP produced by ENPP1.
The final reaction mixture contains 50 mM Tris (pH 8.5) buffer, 250 mM NaCl, 0.5 mM. CaCl2, 1 μM ZnCl2, 5% glycerol and 1% DMSO. […] The reaction was initiated by addition of cGAMP (at a final concentration of 5 μM) and reacted at 37° C. for 90 minutes. At the end of the reaction, 10 μl of the AMP-Glo first reagent was added to stop the reaction and the result was stored at room temperature for […]. After storage, 20 μl of an AMP detection solution (a mixture of AMP-Glo II reagent and Kinase-Gio at a ratio of 1:100) was added and stored at room. temperature for 1 hour. Luminescence signals were measured using a Victor® plate reader (Perkin Elmer). The maximal activity control (containing enzymes and substrates only in the presence of 1% DMSO; MAX) and the minimal activity control (containing substrates and 1% DMSO; MIN) were evaluated simultaneously. In each experiment, serially diluted reference ENPP1 inhibitors were tested together. IC50, indicating % residual activity versus compound concentration was determined by fitting inhibition curves using the 3-parameter analysis of GraphPad Prism® software. Serially diluted samples of one compound were tested two or more times and an average IC50 of each compound was calculated.

Where a name gives a salt, the structure may show the parent alone.

Regarding `COc1ccc2c(=O)n(C)nc(-c3ccc(CN)cc3)c2c1` [Compound No. 44, (4-(7-methoxy-3-methyl-4-oxo-3,4-dihydrophthalazin-1-yl)phenyl)methanaminium chloride], the IC50 (as a rule, the concentration that gives 50% inhibition) fell in the range of 1 to 10 µM.
Consider `COc1ccc2c(-c3ccc(CN)cc3)nn(C)c(=O)c2c1` [Compound No. 46, 4-(4-(aminomethyl)phenyl)-7-methoxy-2-methylphthalazin-1(2H)-one hydrochloride], for which the IC50 was > 10 µM.
Turning to `COc1ccc2c(-c3ccc(CN)cc3)n[nH]c(=O)c2c1` [Compound No. 47, 4-(4-(aminomethyl)-phenyl)-7-methoxyphthalazin-1(2H)-one hydrochloride], the 50% inhibitory concentration (IC50) is < 1 µM.
For `COc1cc2c(-c3ccc(CN)cc3)n[nH]c(=O)c2cc1OC` [Compound No. 48, 4-(4-(aminomethyl)phenyl)-6,7-dimethoxyphthalazin-1(2H)-one hydrochloride], the concentration for half-maximal inhibition (IC50) is < 1 µM.
To `COc1cc2c(-c3ccc(CN)cc3)nn(C)c(=O)c2cc1OC` [Compound No. 49, 4-(4-(aminomethyl)phenyl)-6,7-dimethoxy-2-methylphthalazin-1(2H)-one hydrochloride] belongs < 1 µM.
The value for `C[C@@H](N)c1ccc(-c2n[nH]c(=O)c3ccccc23)cc1` [Compound No. 51, (R)-4-(4-(1-aminoethyl)phenyl)phthalazin-1(2H)-one hydrochloride] was < 1 µM; that for `CC(C)(N)c1ccc(-c2n[nH]c(=O)c3ccccc23)cc1` [Compound No. 52, 4-(4-(2-aminopropan-2-yl)phenyl)phthalazin-1(2H)-one hydrochloride] was 1 to 10 µM; that for `NCc1ccc(-c2n[nH]c(=O)c3ccccc23)cc1C(F)(F)F` [Compound No. 53, 4-(4-(aminomethyl)-3-(trifluoromethyl)phenyl)phthalazin-1(2H)-one hydrochloride] was < 1 µM.
To `O=c1[nH]nc(-c2ccc3c(c2)CCNC3)c2ccccc12` [Compound No. 55, 4-(1,2,3,4-tetrahydroisoquinolin-6-yl)phthalazin-1(2H)-one hydrochloride] belongs < 1 µM; to `Cn1nc(-c2ccc3c(c2)CCNC3)c2ccccc2c1=O` [Compound No. 56, 2-methyl-4-(1,2,3,4-tetrahydroisoquinolin-6-yl)phthalazin-1(2H)-one hydrochloride], 1 to 10 µM.
For the compound `COc1cc2c(-c3ccc4c(c3)CCNC4)n[nH]c(=O)c2cc1OC` [Compound No. 57, 6,7-dimethoxy-4-(1,2,3,4-tetrahydroisoquinolin-6-yl)phthalazin-1(2H)-one hydrochloride], the IC50 was 1 to 10 µM.
As to `COc1cc2c(-c3ccc4c(c3)CCNC4)nn(C)c(=O)c2cc1OC` [Compound No. 58, 6,7-dimethoxy-2-methyl-4-(1,2,3,4-tetrahydroisoquinolin-6-yl)phthalazin-1(2H)-one hydrochloride], the IC50 was 1 to 10 µM.
To `COc1cc2c(-c3ccc4c(c3)CNCC4)n[nH]c(=O)c2cc1OC` [Compound No. 59, 6,7-dimethoxy-4-(1,2,3,4-tetrahydroisoquinolin-7-yl) phthalazin-1(2H)-one] belongs > 10 µM; to `CC(C)(C)OC(=O)NS(=O)(=O)Nc1cccc(-c2n[nH]c(=O)c3ccccc23)c1` [Compound No. 60, tert-butyl (N-(3-(4-oxo-3,4-dihydrophthalazin-1-yl)phenyl)sulfamoyl)carbamate], > 10 µM.
For `Cn1nc(-c2cccc(NS(=O)(=O)NC(=O)OC(C)(C)C)c2)c2ccccc2c1=O` [Compound No. 61, tert-butyl (N-(3-(3-methyl-4-oxo-3,4-dihydrophthalazin-1-yl)phenyl)sulfamoyl)carbamate], the IC50 is > 10 µM.
The value for `CC(C)(C)OC(=O)NS(=O)(=O)Nc1cccc(-c2nn(Cc3ccccc3)c(=O)c3ccccc23)c1` [Compound No. 62, tert-butyl (N-(3-(3-benzyl-4-oxo-3,4-dihydrophthalazin-1-yl)phenyl)sulfamoyl)carbamate] was > 10 µM; that for `Cn1nc(-c2cccc(CNS(=O)(=O)NC(=O)OC(C)(C)C)c2)c2ccccc2c1=O` [Compound No. 64, tert-butyl N-(3-(3-methyl-4-oxo-3,4-dihydrophthalazin-1-yl)benzyl)sulfamoyl carbamate] was > 10 µM; that for `Cn1nc(-c2ccc(CNS(=O)(=O)NC(=O)OC(C)(C)C)cc2)c2ccccc2c1=O` [Compound No. 66, tert-butyl (N-(4-(3-methyl-4-oxo-3,4-dihydrophthalazin-1-yl)benzyl)sulfamoyl)carbamate] was > 10 µM.
Turning to `CCn1nc(-c2ccc(CNS(=O)(=O)NC(=O)OC(C)(C)C)cc2)c2ccccc2c1=O` [Compound No. 67, tert-butyl (N-(4-(3-ethyl-4-oxo-3,4-dihydrophthalazin-1-yl)benzyl)sulfamoyl)carbamate], the IC50 was > 10 µM.
For `CC(C)(C)OC(=O)NS(=O)(=O)NCc1ccc(-c2nn(-c3ccccc3)c(=O)c3ccccc23)cc1` [Compound No. 69, tert-butyl (N-(4-(4-oxo-3-phenyl-3,4-dihydrophthalazin-1-yl)benzyl)sulfamoyl)carbamate], the IC50 is > 10 µM.
To `CC(C)(C)OC(=O)NS(=O)(=O)NCc1ccc(-c2nn(Cc3ccccc3)c(=O)c3ccccc23)cc1` [Compound No. 70] belongs > 10 µM; to `CC(C)(C)OC(=O)NS(=O)(=O)NCc1ccc(-c2nn(Cc3ccc(F)cc3)c(=O)c3ccccc23)cc1` [Compound No. 71, tert-butyl (N-(4-(3-(4-fluorobenzyl)-4-oxo-3,4-dihydrophthalazin-1-yl)benzyl)sulfamoyl)carbamate], > 10 µM.
To `COc1ccc2c(=O)[nH]nc(-c3ccc(CNS(=O)(=O)NC(=O)OC(C)(C)C)cc3)c2c1` [Compound No. 72] belongs > 10 µM; to `COc1ccc2c(=O)n(C)nc(-c3ccc(CNS(=O)(=O)NC(=O)OC(C)(C)C)cc3)c2c1` [Compound No. 73, tert-butyl N-(4-(7-methoxy-3-methyl-4-oxo-3,4-dihydrophthalazin-1-yl)benzyl)sulfamoyl carbamate], > 10 µM; to `COc1cc2c(-c3ccc(CNS(=O)(=O)NC(=O)OC(C)(C)C)cc3)n[nH]c(=O)c2cc1OC` [Compound No. 76, tert-butyl (N-(4-(6,7-dimethoxy-4-oxo-3,4-dihydrophthalazin-1-yl)benzyl)sulfamoyl)carbamate], 1 to 10 µM.
Consider `COc1cc2c(-c3ccc(CNS(=O)(=O)NC(=O)OC(C)(C)C)cc3)nn(C)c(=O)c2cc1OC` [Compound No. 77, tert-butyl (N-(4-(6,7-dimethoxy-3-methyl-4-oxo-3,4-dihydrophthalazin-1-yl)benzyl)sulfamoyl)carbamate], for which the IC50 fell in the range of 1 to 10 µM.
`CC(C)(C)OC(=O)NS(=O)(=O)NCc1ccc(-c2n[nH]c(=O)c3ccccc23)cc1C(F)(F)F` [Compound No. 81, tert-butyl N-(4-(4-oxo-3,4-dihydrophthalazin-1-yl)-2-(trifluoromethyl)benzyl)sulfamoyl carbamate]: the concentration for half-maximal inhibition (IC50) was > 10 µM.
To `CC(C)(C)OC(=O)NS(=O)(=O)N1CCc2cc(-c3n[nH]c(=O)c4ccccc34)ccc2C1` [Compound No. 83, tert-butyl ((6-(4-oxo-3,4-dihydrophthalazin-1-yl)-3,4-dihydroisoquinolin-2(1H)-yl)sulfonyl)carbamate] belongs > 10 µM.
